According to article PMC10092844, “Inhibition profile of trifludimoxazin towards PPO2 target site mutations” (Pest Management Science, 2022):
Like-named read-outs stand apart in the source and are kept apart here.

Key:
[1] = test system: T1 35S::AMATU PPO2 R128N ΔG210 Arabidopsis lines; assay: herbicide treatment of transgenic Arabidopsis T1 lines; type: in vivo, Arabidopsis thaliana; conditions: foliar-applied 2×, 1×, 0.5× field dose, 7 days after treatment
[2] = test system: T1 35S::AMATU PPO2 R128M ΔG210 Arabidopsis lines; assay: as above; type: in vivo, Arabidopsis thaliana; conditions: foliar-applied 2×, 1×, 0.5× field dose, 7 days after treatment
[3] = test system: T1 35S::AMATU PPO2 R128T ΔG210 Arabidopsis lines; assay: as above; type: in vivo, Arabidopsis thaliana; conditions: foliar-applied 2×, 1×, 0.5× field dose, 7 days after treatment
[4] = test system: PPO1 enzyme carrying A212T mutation; set-up: method as in PMID 31788953; conditions: cited from earlier work
[5] = molecular target: T1, PPO2 wild-type in Escherichia coli hemG (Amaranthus tuberculatus, UniProt Q0NZW9); type: cell-based; conditions: read-out: IC50 (E. coli hemG growth)
T1 sequence (Q0NZW9 31-534): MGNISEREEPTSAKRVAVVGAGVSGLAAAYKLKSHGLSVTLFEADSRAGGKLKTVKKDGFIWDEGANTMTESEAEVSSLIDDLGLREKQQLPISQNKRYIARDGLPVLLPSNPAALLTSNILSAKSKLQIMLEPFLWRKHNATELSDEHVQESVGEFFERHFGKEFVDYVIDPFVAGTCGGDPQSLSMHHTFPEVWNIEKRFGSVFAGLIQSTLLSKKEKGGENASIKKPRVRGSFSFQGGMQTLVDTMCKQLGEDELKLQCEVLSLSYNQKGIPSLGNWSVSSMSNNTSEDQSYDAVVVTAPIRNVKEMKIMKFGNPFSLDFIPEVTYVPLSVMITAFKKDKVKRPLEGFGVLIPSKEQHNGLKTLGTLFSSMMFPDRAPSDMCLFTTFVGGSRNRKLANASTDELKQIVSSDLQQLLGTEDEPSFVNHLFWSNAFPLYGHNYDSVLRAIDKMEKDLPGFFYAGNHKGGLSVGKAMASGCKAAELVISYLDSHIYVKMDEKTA

[6] = test system: T1 35S::AMATU PPO2 R128A ΔG210 Arabidopsis lines; assay: herbicide treatment of transgenic Arabidopsis T1 lines; type: in vivo, Arabidopsis thaliana; conditions: foliar-applied 2×, 1×, 0.5× field dose, 7 days after treatment
[7] = molecular target: T2, PPO2 ΔG210 in Escherichia coli hemG (Amaranthus tuberculatus, UniProt Q0NZW9, DEL210-210, cells depend on it); type: cell-based; conditions: read-out: IC50 (E. coli hemG growth)
T2 sequence (Q0NZW9 with tags, fused parts or gaps DEL210-210): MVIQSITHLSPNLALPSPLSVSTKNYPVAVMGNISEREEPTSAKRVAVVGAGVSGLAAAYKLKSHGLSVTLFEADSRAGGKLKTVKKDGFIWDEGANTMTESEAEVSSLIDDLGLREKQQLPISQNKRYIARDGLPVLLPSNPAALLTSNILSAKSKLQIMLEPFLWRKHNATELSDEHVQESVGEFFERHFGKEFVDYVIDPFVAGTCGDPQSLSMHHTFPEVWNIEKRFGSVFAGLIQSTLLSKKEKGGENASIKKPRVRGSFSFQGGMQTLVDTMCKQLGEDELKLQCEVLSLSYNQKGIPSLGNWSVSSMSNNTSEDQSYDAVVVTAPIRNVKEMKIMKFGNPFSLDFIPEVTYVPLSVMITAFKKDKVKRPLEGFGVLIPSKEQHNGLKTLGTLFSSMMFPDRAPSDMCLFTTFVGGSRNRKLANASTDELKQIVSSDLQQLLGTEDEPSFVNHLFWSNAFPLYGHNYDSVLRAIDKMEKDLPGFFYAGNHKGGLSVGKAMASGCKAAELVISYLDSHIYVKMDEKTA

[8] = test system: T1 35S::AMATU PPO2 R128I ΔG210 Arabidopsis lines; assay: herbicide treatment of transgenic Arabidopsis T1 lines; type: in vivo, Arabidopsis thaliana; conditions: foliar-applied 2×, 1×, 0.5× field dose, 7 days after treatment
[9] = molecular target: PPO2 wild-type (Amaranthus tuberculatus, UniProt Q0NZW9); assay: in vitro inhibition assay, recombinant PPO2 enzyme; type: biochemical
[10] = test system: E. coli hemG strain; assay: E. coli hemG growth assay (strain sensitivity); type: cell-based, Escherichia coli; conditions: data not shown; probably impaired uptake or hydrolysis
[11] = Wild-type PPO2, recombinant protein activity in vitro

With `C#CCN1C(=O)C(F)(F)Oc2cc(F)c(-n3c(=O)n(C)c(=S)n(C)c3=O)cc21` [Trifludimoxazin, trifludimoxazin] the “herbicide efficacy, visual assessment of plant growth” value (“herbicide efficacy, visual assessment” for short) [1] was “more reduced by trifludimoxazin than saflufenacil at each rate”, the “herbicide efficacy, visual assessment” value [2] was “reduced by both trifludimoxazin and saflufenacil at 1×” and the “herbicide efficacy, visual assessment” value [3] was “more reduced by trifludimoxazin than saflufenacil at each rate”. For the same molecule, the “inhibition of PPO1 A212T enzyme” value [4] was “fully inhibit”, the IC50 [5] was 0.927 nM and the “herbicide efficacy, visual assessment” value [6] was “reduced plant growth at 2×, 1× and 0.5× the rate of all five T1 plants”. For the same molecule, the IC50 [7] was 1.18 nM, the “herbicide efficacy, visual assessment” value [8] was “more controlled by trifludimoxazin than saflufenacil at all the used rates” and the IC50 ([9]; Wild-type PPO2, recombinant protein activity in vitro, read-out: IC50) was 0.245 nM.
For `CC(C)N(C)S(=O)(=O)NC(=O)c1cc(-n2c(=O)cc(C(F)(F)F)n(C)c2=O)c(F)cc1Cl` [Saflufenacil, saflufenacil], the “herbicide efficacy, visual assessment” value [2] was “few T1 plants showed persistent growth with saflufenacil at the 2× and 0.5× rate”, the IC50 [5] was 31.9 nM and the “herbicide efficacy, visual assessment” value [6] was “two T1 lines expressing R128A ΔG210 showed significant resistance at each applied rate”. The IC50 [7] was 2120 nM and the IC50 ([9]; read-out: IC50) was 1.89 nM.
Work on `CCOC(=O)C(C)OC(=O)c1cc(Oc2ccc(C(F)(F)F)cc2Cl)ccc1[N+](=O)[O-]` (stereo not shown) [Lactofen, lactofen] yielded an IC50 [5] of 62.4 nM, an IC50 [7] of 357 nM and an IC50 [9, 11] of 0.415 nM.
In the case of `CS(=O)(=O)NC(=O)c1cc(Oc2ccc(C(F)(F)F)cc2Cl)ccc1[N+](=O)[O-]` [Fomesafen, fomesafen], the “sensitivity of E. coli hemG strain” value [10] is reported as “not sensitive” and the IC50 [9, 11] is reported as 7.13 nM.
